# Data published in ChEMBL document CHEMBL4330101, “Identification of BR101549 as a lead candidate of non-TZD PPARγ agonist for the treatment of type 2 diabetes: Proof-of-concept evaluation and SAR” (Bioorg Med Chem Lett, 2019).
# Tested on: not listed separately
# Assay: Stability in mouse liver microsomes assessed as parent compound remaining after 30 mins
# Assay type: ADME, Microsome
# Settings: read-out: Stability
row,Compound,remaining at 0.5 h [%]
1,CCCCc1nc(C(C)C)c(CC(=O)OC)c(=O)n1Cc1ccc(-c2ccccc2-c2noc(=O)[nH]2)cc1,9.4
2,CCCCOC(=O)Cc1c(C)nc(CCCC)n(Cc2ccc(-c3ccccc3-c3noc(=O)[nH]3)cc2)c1=O,10.2
3,CCCCc1nc(C(C)C)c(CC(=O)OC(CC)CC)c(=O)n1Cc1ccc(-c2ccccc2-c2noc(=O)[nH]2)cc1,14.6
4,CCCCc1nc(C2CC2)c(CC(=O)OC)c(=O)n1Cc1ccc(-c2ccccc2-c2noc(=O)[nH]2)cc1,16.4
5,CCCCc1nc(C)c(CC(=O)OC2CC2)c(=O)n1Cc1ccc(-c2ccccc2-c2noc(=O)[nH]2)cc1,12.8
6,CCCCc1nc(C)c(CC(=O)OC)c(=O)n1Cc1ccc(-c2ccccc2-c2noc(=O)[nH]2)cc1,47.1

# Results, then the compound that gave them:
row,remaining at 0.5 h [%],Compound
1,13,CCCCc1nc(C)c(CC(=O)OCC2CC2)c(=O)n1Cc1ccc(-c2ccccc2-c2noc(=O)[nH]2)cc1
2,7.7,CCCCc1nc(C)c(CC(=O)OCC(C)C)c(=O)n1Cc1ccc(-c2ccccc2-c2noc(=O)[nH]2)cc1
3,11.4,CCCCc1nc(C(C)C)c(CC(=O)OC2CC2)c(=O)n1Cc1ccc(-c2ccccc2-c2noc(=O)[nH]2)cc1
4,8.9,CCCCc1nc(C)c(CC(=O)OCC2CCCCC2)c(=O)n1Cc1ccc(-c2ccccc2-c2noc(=O)[nH]2)cc1
5,13.7,CCCCc1nc(C(C)C)c(CC(=O)OCC(C)C)c(=O)n1Cc1ccc(-c2ccccc2-c2noc(=O)[nH]2)cc1
6,16.4,CC#CCOC(=O)Cc1c(C(C)C)nc(CCCC)n(Cc2ccc(-c3ccccc3-c3noc(=O)[nH]3)cc2)c1=O
7,21.6,CCCCOC(=O)Cc1c(C(C)C)nc(CCCC)n(Cc2ccc(-c3ccccc3-c3noc(=O)[nH]3)cc2)c1=O
8,10.7,CCCCc1nc(C)c(CC(=O)OC2CCCCC2)c(=O)n1Cc1ccc(-c2ccccc2-c2noc(=O)[nH]2)cc1

# Tested on: not listed separately
# Assay: Stability in human liver microsomes assessed as parent compound remaining after 30 mins
# Assay type: ADME, Microsome
# Settings: read-out: Stability
row,Compound,remaining at 0.5 h [%]
1,CCCCc1nc(C(C)C)c(CC(=O)OC)c(=O)n1Cc1ccc(-c2ccccc2-c2noc(=O)[nH]2)cc1,10.5
2,CCCCOC(=O)Cc1c(C)nc(CCCC)n(Cc2ccc(-c3ccccc3-c3noc(=O)[nH]3)cc2)c1=O,2.8
3,CCCCc1nc(C(C)C)c(CC(=O)OC(CC)CC)c(=O)n1Cc1ccc(-c2ccccc2-c2noc(=O)[nH]2)cc1,7.7
4,CCCCc1nc(C2CC2)c(CC(=O)OC)c(=O)n1Cc1ccc(-c2ccccc2-c2noc(=O)[nH]2)cc1,24.4
5,CCCCc1nc(C)c(CC(=O)OC2CC2)c(=O)n1Cc1ccc(-c2ccccc2-c2noc(=O)[nH]2)cc1,34.5
6,CCCCc1nc(C)c(CC(=O)OC)c(=O)n1Cc1ccc(-c2ccccc2-c2noc(=O)[nH]2)cc1,69.6

# The next lines start with the values.
row,remaining at 0.5 h [%],Compound
1,20,CCCCc1nc(C)c(CC(=O)OCC2CC2)c(=O)n1Cc1ccc(-c2ccccc2-c2noc(=O)[nH]2)cc1
2,2.4,CCCCc1nc(C)c(CC(=O)OCC(C)C)c(=O)n1Cc1ccc(-c2ccccc2-c2noc(=O)[nH]2)cc1
3,10.3,CCCCc1nc(C(C)C)c(CC(=O)OC2CC2)c(=O)n1Cc1ccc(-c2ccccc2-c2noc(=O)[nH]2)cc1
4,11.5,CCCCc1nc(C)c(CC(=O)OCC2CCCCC2)c(=O)n1Cc1ccc(-c2ccccc2-c2noc(=O)[nH]2)cc1
5,8.8,CCCCc1nc(C(C)C)c(CC(=O)OCC(C)C)c(=O)n1Cc1ccc(-c2ccccc2-c2noc(=O)[nH]2)cc1
6,13.7,CC#CCOC(=O)Cc1c(C(C)C)nc(CCCC)n(Cc2ccc(-c3ccccc3-c3noc(=O)[nH]3)cc2)c1=O
7,7.1,CCCCOC(=O)Cc1c(C(C)C)nc(CCCC)n(Cc2ccc(-c3ccccc3-c3noc(=O)[nH]3)cc2)c1=O
8,3.9,CCCCc1nc(C)c(CC(=O)OC2CCCCC2)c(=O)n1Cc1ccc(-c2ccccc2-c2noc(=O)[nH]2)cc1

# Target: T1, Peroxisome proliferator-activated receptor gamma (Homo sapiens, UniProt P37231)
# T1 sequence (P37231 whole entry): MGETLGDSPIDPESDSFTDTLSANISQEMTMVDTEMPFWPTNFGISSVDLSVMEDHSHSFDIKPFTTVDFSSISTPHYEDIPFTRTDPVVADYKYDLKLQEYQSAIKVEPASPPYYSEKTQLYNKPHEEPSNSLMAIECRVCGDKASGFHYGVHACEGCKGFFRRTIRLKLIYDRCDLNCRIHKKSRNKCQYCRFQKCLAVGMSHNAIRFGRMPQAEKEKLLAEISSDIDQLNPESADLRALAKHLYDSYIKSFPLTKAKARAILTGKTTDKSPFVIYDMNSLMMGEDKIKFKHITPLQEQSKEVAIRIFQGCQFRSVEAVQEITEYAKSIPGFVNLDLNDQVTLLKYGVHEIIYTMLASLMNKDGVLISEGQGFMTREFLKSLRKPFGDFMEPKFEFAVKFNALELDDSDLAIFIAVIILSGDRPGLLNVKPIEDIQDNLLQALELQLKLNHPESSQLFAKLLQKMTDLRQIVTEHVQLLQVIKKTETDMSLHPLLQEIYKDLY
# Assay: Agonist activity at human PPARgamma
# Settings: not given
row,Compound,EC50 [nM]
1,CCCCc1nc(C(C)C)c(CC(=O)OC)c(=O)n1Cc1ccc(-c2ccccc2-c2noc(=O)[nH]2)cc1,2620
2,CCCCOC(=O)Cc1c(C)nc(CCCC)n(Cc2ccc(-c3ccccc3-c3noc(=O)[nH]3)cc2)c1=O,2250
3,CCCCc1nc(C2CC2)c(CC(=O)OC)c(=O)n1Cc1ccc(-c2ccccc2-c2noc(=O)[nH]2)cc1,2360
4,CCCCc1nc(C)c(CC(=O)OC2CC2)c(=O)n1Cc1ccc(-c2ccccc2-c2noc(=O)[nH]2)cc1,3310
5,CCCCc1nc(C)c(CC(=O)OC)c(=O)n1Cc1ccc(-c2ccccc2-c2noc(=O)[nH]2)cc1,7360

# Further lines, results first:
row,EC50 [nM],Compound
1,1810,CCCCc1nc(C)c(CC(=O)OCC2CC2)c(=O)n1Cc1ccc(-c2ccccc2-c2noc(=O)[nH]2)cc1
2,1530,CCCCc1nc(C)c(CC(=O)OCC(C)C)c(=O)n1Cc1ccc(-c2ccccc2-c2noc(=O)[nH]2)cc1
3,1360,CCCCc1nc(C(C)C)c(CC(=O)OC2CC2)c(=O)n1Cc1ccc(-c2ccccc2-c2noc(=O)[nH]2)cc1
4,1320,CCCCc1nc(C)c(CC(=O)OCC2CCCCC2)c(=O)n1Cc1ccc(-c2ccccc2-c2noc(=O)[nH]2)cc1
5,1230,CCCCc1nc(C(C)C)c(CC(=O)OCC(C)C)c(=O)n1Cc1ccc(-c2ccccc2-c2noc(=O)[nH]2)cc1
6,1060,CC#CCOC(=O)Cc1c(C(C)C)nc(CCCC)n(Cc2ccc(-c3ccccc3-c3noc(=O)[nH]3)cc2)c1=O
7,1000,CCCCOC(=O)Cc1c(C(C)C)nc(CCCC)n(Cc2ccc(-c3ccccc3-c3noc(=O)[nH]3)cc2)c1=O
8,1000,CCCCc1nc(C)c(CC(=O)OC2CCCCC2)c(=O)n1Cc1ccc(-c2ccccc2-c2noc(=O)[nH]2)cc1

# Target: T2, Peroxisome proliferator-activated receptor gamma (Homo sapiens) (UniProt P37231)
# T2 sequence (whole entry): T1 sequence (P37231 whole entry)
# Assay: Agonist activity at human PPARgamma at 1 uM relative to pioglitazone
# Settings: not given
row,Compound,max activation [%]
1,CCCCc1nc(C(C)C)c(CC(=O)OC)c(=O)n1Cc1ccc(-c2ccccc2-c2noc(=O)[nH]2)cc1,96
2,CCCCOC(=O)Cc1c(C)nc(CCCC)n(Cc2ccc(-c3ccccc3-c3noc(=O)[nH]3)cc2)c1=O,116
3,CCCCc1nc(C2CC2)c(CC(=O)OC)c(=O)n1Cc1ccc(-c2ccccc2-c2noc(=O)[nH]2)cc1,83
4,CCCCc1nc(C)c(CC(=O)OC2CC2)c(=O)n1Cc1ccc(-c2ccccc2-c2noc(=O)[nH]2)cc1,62
5,CCCCc1nc(C)c(CC(=O)OC)c(=O)n1Cc1ccc(-c2ccccc2-c2noc(=O)[nH]2)cc1,74

# The remaining lines, values ahead:
row,max activation [%],Compound
1,101,CCCCc1nc(C)c(CC(=O)OCC2CC2)c(=O)n1Cc1ccc(-c2ccccc2-c2noc(=O)[nH]2)cc1
2,114,CCCCc1nc(C)c(CC(=O)OCC(C)C)c(=O)n1Cc1ccc(-c2ccccc2-c2noc(=O)[nH]2)cc1
3,89,CCCCc1nc(C(C)C)c(CC(=O)OC2CC2)c(=O)n1Cc1ccc(-c2ccccc2-c2noc(=O)[nH]2)cc1
4,90,CCCCc1nc(C)c(CC(=O)OCC2CCCCC2)c(=O)n1Cc1ccc(-c2ccccc2-c2noc(=O)[nH]2)cc1
5,128,CCCCc1nc(C(C)C)c(CC(=O)OCC(C)C)c(=O)n1Cc1ccc(-c2ccccc2-c2noc(=O)[nH]2)cc1
6,103,CC#CCOC(=O)Cc1c(C(C)C)nc(CCCC)n(Cc2ccc(-c3ccccc3-c3noc(=O)[nH]3)cc2)c1=O
7,73,CCCCOC(=O)Cc1c(C(C)C)nc(CCCC)n(Cc2ccc(-c3ccccc3-c3noc(=O)[nH]3)cc2)c1=O
8,98,CCCCc1nc(C)c(CC(=O)OC2CCCCC2)c(=O)n1Cc1ccc(-c2ccccc2-c2noc(=O)[nH]2)cc1
